Reference: US4025622A, “Novel sugar ureide and thioureide derivatives” (Ogura; Haruo, priority 1974, dated 1977)
Converted amounts (≈) assume the structure as drawn.

Legend:
[1] = test system: Escherichia coli IAM-1264; assay: Minimum inhibitory concentration, standard serial dilution method; type: cell-based; settings: 37° C.; for MIC: Escherichia coli, IAM1264, 24 h, inoculum size 1.9×10^5, Brain heart infusion broth
Method: (§1) The minimum inhibitory concentration (mcg/ml) of a variety of the sugar ureide and thioureide derivatives according to this invention against various bacteria was determined in accordance with a standard serial dilution method using as medium Brain heart infusion broth (Difco) at 37° C. the determination being made after 24 hours incubation. The results are shown in Table 1 together with the results of test for ampicillin as reference.

Klebsiella pneumoniae = assay: as above; type: cell-based; settings: 37° C.; for MIC: Klebsiella pneumoniae, 24 h, inoculum size 1.3×10^5, Brain heart infusion broth
Method: as §1

Proteus vulgaris OX 19 = assay: as above; type: cell-based; settings: 37° C.; for MIC Proteus vulgaris OX 19: inoculum size 1.2×10^5, Brain heart infusion broth, 24 hours; for MIC: Proteus vulgaris, OX19, 24 h, inoculum size 1.2×10^5, Brain heart infusion broth
Method: as §1

[2] = test system: Pseudomonas aeruginosa IAM-1007; assay: as above; type: cell-based; settings: 37° C.; for MIC: Pseudomonas aeruginosa, IAM1007, 24 h, inoculum size 1.3×10^5, Brain heart infusion broth
Method: as §1

Salmonella typhi O-901-W = assay: as above; type: cell-based; settings: 37° C.; for MIC Salmonella typhi O-901-W: inoculum size 3.5×10^5, Brain heart infusion broth, 24 hours; for MIC: Salmonella enterica, TYPHI, 24 h, inoculum size 3.5×10^5, Brain heart infusion broth
Method: as §1

[3] = test system: Staphylococcus aureus 209 P; assay: as above; type: cell-based; settings: inoculum size 3.8×10^5, Brain heart infusion broth, 37° C., 24 hours; for MIC: Staphylococcus aureus, 209P
Method: as §1

[4] = test system: Staphylococcus aureus No. 26; assay: as above; type: cell-based; settings: 37° C.; for MIC: Staphylococcus aureus, NO.26, 24 h, inoculum size 2.3×10^5, Brain heart infusion broth
Method: as §1

mice = assay: LDo value for mice by oral administration; type: in vivo
[5] = inoculum size 1.3×10^5, Brain heart infusion broth, 24 hours

## CC(=O)O[C@H]1[C@H](OC(C)=O)[C@@H](NC(=S)N[C@@H](C(=O)N[C@@H]2C(=O)N3[C@@H]2SC(C)(C)[C@@H]3C(=O)O)c2ccccc2)OC[C@H]1OC(C)=O [Example 13, α-(2,3,4-Tri-O-acetyl-α-D-arabinopyranosylthioureido) benzylpenicillin]
[1]; inoculum size 1.9×10^5, Brain heart infusion broth, 24 hours
  MIC Escherichia coli IAM-1264: > 100 µg/mL
Klebsiella pneumoniae; [5]
  MIC Klebsiella pneumoniae: > 100 µg/mL
Proteus vulgaris OX 19
  MIC Proteus vulgaris OX 19: 25 µg/mL (≈ 37.5 µM)
[2]; [5]
  MIC Pseudomonas aeruginosa IAM-1007: > 100 µg/mL
Salmonella typhi O-901-W
  MIC Salmonella typhi O-901-W: > 100 µg/mL
[3]
  MIC Staphylococcus aureus 209 P: 3.12 µg/mL (≈ 4.68 µM)
[4]; inoculum size 2.3×10^5, Brain heart infusion broth, 24 hours
  MIC Staphylococcus aureus No. 26: > 100 µg/mL

## CC1(C)S[C@@H]2[C@H](NC(=O)[C@H](N)c3ccccc3)C(=O)N2[C@H]1C(=O)O [Ampicillin, α-aminobenzylpenicillin, reference compound]
[1]
  MIC: 3.12 µg/mL (≈ 8.93 µM)
Klebsiella pneumoniae
  MIC: 1.56 µg/mL (≈ 4.46 µM)
Proteus vulgaris OX 19
  MIC: 100 µg/mL (≈ 286 µM)
[2]
  MIC: > 100 µg/mL
Salmonella typhi O-901-W
  MIC: 0.39 µg/mL (≈ 1.12 µM)
[3]
  MIC: 0.1 µg/mL (≈ 0.286 µM)
[4]
  MIC: > 100 µg/mL
mice
  LDo: > 1000 mg/kg

## CC(=O)OC[C@@H](OC(C)=O)[C@@H](OC(C)=O)[C@H](OC(C)=O)[C@@H](OC(C)=O)C(=O)NC(=S)N[C@@H](C(=O)N[C@@H]1C(=O)N2[C@@H]1SC(C)(C)[C@@H]2C(=O)O)c1ccccc1 [Example 17, α-(2,3,4,5,6-Penta-O-acetyl-D-gluconyl-thioureido) benzylpenicillin]
[1]
  MIC: > 100 µg/mL
Klebsiella pneumoniae
  MIC: > 100 µg/mL
Proteus vulgaris OX 19
  MIC: 1.56 µg/mL (≈ 1.96 µM)
[2]
  MIC: > 100 µg/mL
Salmonella typhi O-901-W
  MIC: 50 µg/mL (≈ 62.7 µM)
[3]
  MIC: 0.78 µg/mL (≈ 0.979 µM)
[4]
  MIC: > 100 µg/mL
mice
  LDo: > 1000 mg/kg

## CC(=O)O[C@H]1[C@H](OC(C)=O)[C@@H](NC(=S)N[C@@H](C(=O)N[C@@H]2C(=O)N3[C@@H]2SC(C)(C)[C@@H]3C(=O)O)c2ccccc2)OC[C@H]1OC(C)=O [Example 10, Triethylammonium α-(2,3,4,-tri-O-acetyl-α-D-arabinopyranosylthioureido) benzylpenicillinate]
[1]
  MIC: 50 µg/mL
Klebsiella pneumoniae
  MIC: 50 µg/mL
Proteus vulgaris OX 19
  MIC Proteus vulgaris OX 19: > 100 µg/mL
[2]
  MIC: 200 µg/mL
Salmonella typhi O-901-W
  MIC Salmonella typhi O-901-W: 6.25 µg/mL
[3]
  MIC: 3.12 µg/mL
[4]
  MIC: 100 µg/mL
mice
  LDo: > 1000 mg/kg

## CC(=O)OC[C@@H](OC(C)=O)[C@@H](OC(C)=O)[C@H](OC(C)=O)[C@@H](OC(C)=O)C(=O)NC(=S)N[C@@H](C(=O)N[C@@H]1C(=O)N2C(C(=O)O)=C(C)CS[C@H]12)c1ccccc1 [Example 28, 7-[D-α-(2,3,4,5,6-penta-O-acetyl-D-gluconylthioureido)-phenylacetamido] -3-methyl-3-cephem-4-carboxylic acid]
[1]
  MIC: > 100 µg/mL
Klebsiella pneumoniae
  MIC: > 100 µg/mL
Proteus vulgaris OX 19
  MIC: 100 µg/mL (≈ 126 µM)
[2]
  MIC: > 100 µg/mL
Salmonella typhi O-901-W
  MIC: > 100 µg/mL
[3]
  MIC: 12.5 µg/mL (≈ 15.7 µM)
mice
  LDo: > 1000 mg/kg
